Laboratory results reported in ChEMBL document CHEMBL1141279, “Benzylphenethylamine alkaloids from Hosta plantaginea with inhibitory activity against tobacco mosaic virus and acetylcholinesterase” (J Nat Prod, 2007).
The source made the active and inactive calls. The calls are words filed in the database; no cut-off is given here.

How the values were obtained:
Acetylcholinesterase = Acetylcholinesterase (Homo sapiens, UniProt P22303)
Description: Inhibition of AChE by Ellman method

Tobacco mosaic virus [1] = test: Antiviral activity against Tobacco mosaic virus U1 after 72 hrs by half leaf method; type: functional, organism-based; conditions: for IC50: U1, 72 h
Tobacco mosaic virus [2] = test: Antiviral activity against Tobacco mosaic virus U1 at 1 ug/mL after 72 hrs by half leaf method; type: functional; conditions: U1, 72 h

Chain of Acetylcholinesterase (P22303 whole entry): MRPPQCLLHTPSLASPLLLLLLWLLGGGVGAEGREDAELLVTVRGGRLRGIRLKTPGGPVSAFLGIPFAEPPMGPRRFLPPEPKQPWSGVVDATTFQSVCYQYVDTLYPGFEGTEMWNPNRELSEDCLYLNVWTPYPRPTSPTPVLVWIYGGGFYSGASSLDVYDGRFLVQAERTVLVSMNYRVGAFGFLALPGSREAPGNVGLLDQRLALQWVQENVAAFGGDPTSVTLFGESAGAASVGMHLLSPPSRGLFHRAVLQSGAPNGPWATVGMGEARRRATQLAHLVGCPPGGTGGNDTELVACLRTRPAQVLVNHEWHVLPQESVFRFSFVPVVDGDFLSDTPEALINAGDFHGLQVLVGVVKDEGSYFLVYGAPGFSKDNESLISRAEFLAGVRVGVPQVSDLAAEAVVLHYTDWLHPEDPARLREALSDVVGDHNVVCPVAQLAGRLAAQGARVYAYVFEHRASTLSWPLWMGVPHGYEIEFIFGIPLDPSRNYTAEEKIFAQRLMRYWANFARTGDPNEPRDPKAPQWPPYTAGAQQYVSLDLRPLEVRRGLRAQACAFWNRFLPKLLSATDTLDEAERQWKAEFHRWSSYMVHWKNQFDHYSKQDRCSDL

SMILES: COc1cc2c(c(OC)c1OC)C(=O)O[C@]21[C@H](O)[C@@H](O)C=C2CCN(C)[C@H]21
- IC50 (Acetylcholinesterase): 113 µM

SMILES: O=C1N[C@H]2[C@H](O)[C@H](O)[C@@H](O)C[C@@H]2c2cc3c(cc21)OCO3
- IC50 (Tobacco mosaic virus [1]): 1.8 µM

SMILES: CC(=O)O[C@H]1[C@H]2c3cc4c(cc3CN3CCC(=C[C@@H]1O)[C@H]23)OCO4
- IC50 (Acetylcholinesterase): 0.96 µM

SMILES: COc1cc2c(cc1OC)[C@]1(OC2=O)[C@H](O)[C@@H](O)C=C2CCN(C)[C@H]21
- Activity (Tobacco mosaic virus [1]): inactive
- IC50 (Acetylcholinesterase): 2.32 µM

SMILES: CO[C@@H]1C=C[C@@]23c4cc5c(cc4[C@H](O)N(C[C@@H]2O)[C@H]3C1)OCO5
- Activity (Tobacco mosaic virus [1]): inactive

SMILES: COc1cc2c(c(OC)c1OC)C(=O)O[C@@H]1CC=C3CCN(C)[C@H]3[C@H]21
- Activity (Tobacco mosaic virus [1]): inactive

SMILES: O[C@@H]1C=C[C@@]23c4cc5c(cc4CN(C[C@@H]2O)[C@H]3C1)OCO5
- Activity (Tobacco mosaic virus [1]): inactive

SMILES: CO[C@@H]1C=C[C@@]23c4cc5c(cc4CN(C[C@@H]2O)[C@H]3C1)OCO5 [(+)-HAEMANTHAMINE]
- IC50 (Acetylcholinesterase): 452 µM

SMILES: COc1ccc2c3c(c4cc(OC)c(OC)cc4c2c1)C[C@H]1CCCN1C3 [(-)-ANTOFINE]
- inhibition at 1 µg/mL (Tobacco mosaic virus [2]): 65%

SMILES: COc1cc2c(cc1OC)-c1cccc3c1N(CC3)C2 [ASSOANINE]
- IC50 (Acetylcholinesterase): 3.87 µM

SMILES: O[C@H]1[C@H]2c3cc4c(cc3CN3CCC(=C[C@@H]1O)[C@H]23)OCO4 [LYCORINE]
- Activity (Tobacco mosaic virus [1]): inactive
- IC50 (Acetylcholinesterase): 155 µM

SMILES: Oc1ccc2c3c1O[C@H]1C[C@@H](O)C=C[C@@]31CCNC2 [NORSANGUININE]
- Activity (Tobacco mosaic virus [1]): inactive
- IC50 (Acetylcholinesterase): 1.43 µM

SMILES: NC(=O)c1ncn([C@@H]2O[C@H](CO)[C@@H](O)[C@H]2O)n1 [RIBAVIRIN]
- IC50 (Tobacco mosaic virus [1]): 2990 µM

SMILES: [O-]c1cc2c3c(c1)c1cc4c(cc1c[n+]3CC2)OCO4 [UNGEREMINE]
- IC50 (Acetylcholinesterase): 3.85 µM
